Test systems include OVCAR-3 ovarian; LOX IMVI melanoma; NCI-H23 lung; UACC-257 melanoma; RPMI-8226 leukemia; HOP-62 NSCLC; MCF7 breast; SK-OV-3 ovarian; SNB-19 CNS; SF-268 CNS.
What all share (assay): growth of human tumour cells (NCI), 48 h

The results in this text go back to PubChem BioAssay (NCI).

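Dose response: 5 concentrations. Exposure: 48 h. Format: 96-well plates. Endpoint: linear interpolation; highest concentration if not reached. GI50 = concentration required for 50% inhibition of growth. Definition used: TGI = concentration required for complete inhibition of growth.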

On to `CN(C)S(=O)(=O)c1ccc(NC(=O)COC(=O)c2ccc(S(=O)(=O)N3CCCCC3)cc2)cc1`, for which the GI50 in the assay on OVCAR-3 ovarian, in the assay with LOX IMVI melanoma, with NCI-H23 lung, in the assay on UACC-257 melanoma, in the assay with RPMI-8226 leukemia and with HOP-62 NSCLC was more than 100 µM each time. Moreover, the GI50 with MCF7 breast, in the assay with SK-OV-3 ovarian, in the assay with SNB-19 CNS and with SF-268 CNS was more than 100 µM throughout. The TGI in the assay on OVCAR-3 ovarian, in the assay with LOX IMVI melanoma, in the assay on NCI-H23 lung, with UACC-257 melanoma, in the assay on RPMI-8226 leukemia and in the assay on HOP-62 NSCLC was more than 100 µM each time. Further, the TGI with MCF7 breast, in the assay with SK-OV-3 ovarian, with SNB-19 CNS and with SF-268 CNS was more than 100 µM in each case.
As to `CC/C=C\C=C/C(=O)N/C=C/CC1Cc2cccc(O)c2C(=O)O1` (centres undefined), the GI50 in the assay on OVCAR-3 ovarian is 15.1 µM; in the assay on LOX IMVI melanoma it was 13.3 µM; in the assay on NCI-H23 lung, 58.1 µM; with UACC-257 melanoma it was 25.2 µM; with RPMI-8226 leukemia it was 22.2 µM; in the assay on HOP-62 NSCLC it was 14.5 µM. Besides, the GI50 is 3.87 µM with MCF7 breast, 46.7 µM in the assay with SK-OV-3 ovarian, 32.9 µM in the assay with SNB-19 CNS and 15.1 µM in the assay with SF-268 CNS. The TGI in the assay on OVCAR-3 ovarian was 39.7 µM; with LOX IMVI melanoma, 26.5 µM; in the assay with NCI-H23 lung, more than 100 µM; in the assay with UACC-257 melanoma, more than 100 µM; in the assay with RPMI-8226 leukemia, 56.4 µM; with HOP-62 NSCLC it was 50.5 µM. In addition, the TGI is 49.4 µM with MCF7 breast, more than 100 µM in the assay on SK-OV-3 ovarian, more than 100 µM in the assay with SNB-19 CNS and 53.3 µM in the assay with SF-268 CNS.
In the case of `COC1(C(=O)N[C@@H](C)c2ccc(-n3cc(F)cn3)nc2)CCC(c2nc(C)cc(Nc3cc(C)[nH]n3)n2)CC1` (some centres undefined), the GI50 in the assay on OVCAR-3 ovarian was 3.13 µM; in the assay with LOX IMVI melanoma, 0.714 µM; in the assay on NCI-H23 lung it was 2.6 µM; with UACC-257 melanoma, 10.9 µM; in the assay on RPMI-8226 leukemia, 7.18 µM; in the assay with HOP-62 NSCLC, 1.34 µM. The GI50 was 1.53 µM with MCF7 breast, 1.11 µM in the assay with SK-OV-3 ovarian, 2.29 µM in the assay on SNB-19 CNS and 0.811 µM in the assay with SF-268 CNS. Also, the TGI was found to be 20.6 µM with OVCAR-3 ovarian; 2.54 µM in the assay with LOX IMVI melanoma; 19.9 µM with NCI-H23 lung; 26.5 µM in the assay with UACC-257 melanoma; 40 µM with RPMI-8226 leukemia; 14.6 µM in the assay with HOP-62 NSCLC. Also, the TGI with MCF7 breast is 14.6 µM; in the assay with SK-OV-3 ovarian, 5.07 µM; with SNB-19 CNS, 51.4 µM; in the assay on SF-268 CNS it was 8.04 µM.
`COc1ccc(N2C(C)=C(C#N)C34C(=O)N(c5ccccc5)C(=O)C3=C(O)C=CC24O)cc1` (centres undefined): the GI50 is 1.76 µM with OVCAR-3 ovarian; 5.24 µM with LOX IMVI melanoma; 8.86 µM in the assay on NCI-H23 lung; 30.1 µM in the assay on UACC-257 melanoma; 3.44 µM in the assay on RPMI-8226 leukemia; 22.7 µM with HOP-62 NSCLC. In addition, the GI50 in the assay with MCF7 breast is 10.6 µM; in the assay on SK-OV-3 ovarian, 36.2 µM; in the assay with SNB-19 CNS, 18.4 µM; in the assay on SF-268 CNS, 16.6 µM. Also, the TGI in the assay on OVCAR-3 ovarian was 10.4 µM; in the assay on LOX IMVI melanoma, 18.8 µM; in the assay on NCI-H23 lung it was 58 µM; with UACC-257 melanoma it was more than 100 µM; with RPMI-8226 leukemia, 19.3 µM; in the assay on HOP-62 NSCLC, 75.8 µM. The TGI in the assay with MCF7 breast is 34.9 µM; with SK-OV-3 ovarian, more than 100 µM; in the assay on SNB-19 CNS, 50.2 µM; with SF-268 CNS, 80.2 µM.
For `Cc1ccc2c(ccc3c[n+]4c5ccccc5ccc4n32)c1`, the GI50 in the assay on OVCAR-3 ovarian was 0.459 µM; in the assay with LOX IMVI melanoma, 1.32 µM; in the assay with NCI-H23 lung, 0.606 µM; in the assay with UACC-257 melanoma, 1.43 µM; in the assay on RPMI-8226 leukemia, 2.72 µM; in the assay with HOP-62 NSCLC it was 1.28 µM. For the same compound, the GI50 with MCF7 breast was 2.07 µM; in the assay with SK-OV-3 ovarian it was 1.76 µM; in the assay on SNB-19 CNS it was 0.494 µM; in the assay on SF-268 CNS, 0.39 µM. For the same compound, the TGI was 2.63 µM with OVCAR-3 ovarian; 3.25 µM with LOX IMVI melanoma; 3.51 µM with NCI-H23 lung; 3.82 µM in the assay on UACC-257 melanoma; 18.8 µM in the assay on RPMI-8226 leukemia; 12.6 µM in the assay on HOP-62 NSCLC. The TGI in the assay on MCF7 breast worked out at 8.49 µM; with SK-OV-3 ovarian it was 6.94 µM; with SNB-19 CNS it was 3.38 µM; with SF-268 CNS, 2.13 µM.
For the compound `Cc1ccc(/C=C2\CN(C(=O)OC(C)(C)C)C/C(=C\c3ccc(C)cc3)C2=O)cc1`, the GI50 with OVCAR-3 ovarian was 0.352 µM; in the assay with LOX IMVI melanoma, 0.0743 µM; in the assay on NCI-H23 lung, 0.516 µM; in the assay with RPMI-8226 leukemia, 0.329 µM; in the assay on MCF7 breast, 0.205 µM; with SNB-19 CNS, 0.226 µM. For the same compound, the GI50 in the assay on SF-268 CNS was 0.34 µM. Moreover, the TGI in the assay on LOX IMVI melanoma was more than 100 µM; in the assay with NCI-H23 lung, more than 100 µM; in the assay on UACC-257 melanoma, more than 100 µM; with HOP-62 NSCLC, more than 100 µM; in the assay on MCF7 breast, more than 100 µM; with SK-OV-3 ovarian, 97.5 µM. Besides, the TGI in the assay with SNB-19 CNS and in the assay on SF-268 CNS was more than 100 µM throughout.
On to `CN1CCN(CCc2cccc(C(=O)c3cnn(-c4ccc(F)cc4)c3N)c2)CC1`, for which the GI50 with OVCAR-3 ovarian, in the assay with LOX IMVI melanoma, with NCI-H23 lung, in the assay with UACC-257 melanoma, in the assay on RPMI-8226 leukemia and in the assay with HOP-62 NSCLC was more than 25 µM in each case. In addition, the GI50 in the assay on MCF7 breast, in the assay on SK-OV-3 ovarian, with SNB-19 CNS and in the assay with SF-268 CNS was more than 25 µM throughout. Also, the TGI in the assay on OVCAR-3 ovarian, in the assay with LOX IMVI melanoma, in the assay with NCI-H23 lung, in the assay with UACC-257 melanoma, in the assay with RPMI-8226 leukemia and in the assay on HOP-62 NSCLC was more than 25 µM in each case. Besides, the TGI in the assay on MCF7 breast, in the assay with SK-OV-3 ovarian, in the assay with SNB-19 CNS and with SF-268 CNS was more than 25 µM each time.
As to `COC(=O)[C@]12CC[C@@H](C)[C@H](C)[C@@H]1C1=CC[C@@H]3[C@@]4(C)C[C@@H](OC(C)=O)[C@H](O)[C@@](C)(COC(C)=O)[C@@H]4[C@H](O)C[C@@]3(C)[C@]1(C)CC2`, the GI50 is 2.74 µM in the assay with OVCAR-3 ovarian; 1.64 µM in the assay with LOX IMVI melanoma; 2.73 µM in the assay with NCI-H23 lung; 2.06 µM with UACC-257 melanoma; 2.4 µM in the assay on RPMI-8226 leukemia; 1.89 µM with HOP-62 NSCLC. The GI50 in the assay with MCF7 breast was 2.01 µM; in the assay with SK-OV-3 ovarian, 3.27 µM; in the assay with SNB-19 CNS, 2.78 µM; in the assay with SF-268 CNS it was 3.11 µM. The TGI in the assay on OVCAR-3 ovarian was 7.24 µM; in the assay with LOX IMVI melanoma, 3.1 µM; with NCI-H23 lung, 8.44 µM; in the assay on UACC-257 melanoma it was 5.92 µM; in the assay with RPMI-8226 leukemia, 8.06 µM; in the assay on HOP-62 NSCLC, 4.1 µM. Further, the TGI with MCF7 breast was determined as 5.71 µM; in the assay on SK-OV-3 ovarian it was 10.3 µM; with SF-268 CNS, 13.6 µM.
Take `CC(C)(C)C#CC1=C(Br)C(=O)OC1`: the GI50 with OVCAR-3 ovarian was 0.935 µM; in the assay with LOX IMVI melanoma it was 1.7 µM; with NCI-H23 lung, 2.16 µM; in the assay on UACC-257 melanoma, 0.886 µM; in the assay on RPMI-8226 leukemia, 0.597 µM; with HOP-62 NSCLC, 0.454 µM. The GI50 in the assay on MCF7 breast is 3.99 µM; in the assay on SK-OV-3 ovarian, more than 100 µM; in the assay with SNB-19 CNS, 24.7 µM; in the assay on SF-268 CNS it was 12.7 µM. Further, the TGI with OVCAR-3 ovarian was 4.28 µM; in the assay on LOX IMVI melanoma, more than 21.2 µM; in the assay on NCI-H23 lung, 19 µM; with UACC-257 melanoma it was 4.39 µM; with RPMI-8226 leukemia it was 3.71 µM; in the assay on HOP-62 NSCLC, 1.48 µM. In addition, the TGI was 25.9 µM in the assay with MCF7 breast, more than 100 µM in the assay with SK-OV-3 ovarian, more than 100 µM in the assay with SNB-19 CNS and 33.3 µM in the assay with SF-268 CNS.
As for `CC(C)(C)C[C@H]1NC(C(=O)NCC[C@H](O)CO)[C@H](c2cccc(Cl)c2)[C@@]12C(=O)Nc1cc(Cl)c(F)cc12` (some centres undefined), the GI50 with OVCAR-3 ovarian was 14.6 µM; in the assay on LOX IMVI melanoma, 3.12 µM; in the assay with NCI-H23 lung, 18.7 µM; in the assay on UACC-257 melanoma it was 1.75 µM; with RPMI-8226 leukemia it was 12.8 µM; in the assay on HOP-62 NSCLC it was 15.5 µM. In addition, the GI50 is 1.61 µM in the assay on MCF7 breast, 16.3 µM in the assay with SK-OV-3 ovarian, 21.1 µM in the assay on SNB-19 CNS and 13.7 µM with SF-268 CNS. The TGI with OVCAR-3 ovarian was found to be 28.1 µM; in the assay on LOX IMVI melanoma, 19.1 µM; in the assay on NCI-H23 lung it was 41.6 µM; in the assay on UACC-257 melanoma it was 15.9 µM; with RPMI-8226 leukemia, 38.4 µM; with HOP-62 NSCLC, 29.7 µM. The TGI turned out to be 11.7 µM in the assay on MCF7 breast, 34.9 µM in the assay on SK-OV-3 ovarian, 59.8 µM in the assay on SNB-19 CNS and 30.2 µM in the assay with SF-268 CNS.
Take `CCCCOc1ccc(NC(N)=Nc2ccc(Cl)cc2)cc1`: the TGI was 22.7 µM in the assay with OVCAR-3 ovarian; 15.1 µM in the assay with LOX IMVI melanoma; 17.3 µM with NCI-H23 lung; 5.21 µM in the assay with UACC-257 melanoma; more than 49.5 µM in the assay with RPMI-8226 leukemia; 2.86 µM in the assay on HOP-62 NSCLC. In addition, the TGI is 4.2 µM with MCF7 breast, 22.7 µM in the assay on SK-OV-3 ovarian, 20 µM in the assay with SNB-19 CNS and 12.9 µM in the assay with SF-268 CNS.
